Measured values from ChEMBL document CHEMBL5518230, “Identification of a Novel Selective CDK9 Inhibitor for the Treatment of CRC: Design, Synthesis, and Biological Activity Evaluation” (J Med Chem, 2024).
Values belong to the molecule of their own block, whether it stands above or below them. The source made the active and inactive calls. No cut-off for these calls is given here.

Columns and labels:
[1] = molecular target: CDK1/Cyclin E (Homo sapiens) (UniProt P06493+P24864); experiment: Inhibition of CDK1/Cyclin E1 (unknown origin) at 100 nM; format: protein-complex assay
Homo sapiens = species: Homo sapiens; experiment: Inhibition of CDK1/Cyclin A2 (unknown origin) at 100 nM
CDK9/cyclin T1 = CDK9/cyclin T1 (Homo sapiens, UniProt P50750); experiment: Inhibition of CDK9/Cyclin T1 (unknown origin) using PDKtide substrate incubated for 60 mins by ADP-Glo kinase assay; format: protein-complex assay
Sequence of CDK9/cyclin T1 (O60563 whole entry): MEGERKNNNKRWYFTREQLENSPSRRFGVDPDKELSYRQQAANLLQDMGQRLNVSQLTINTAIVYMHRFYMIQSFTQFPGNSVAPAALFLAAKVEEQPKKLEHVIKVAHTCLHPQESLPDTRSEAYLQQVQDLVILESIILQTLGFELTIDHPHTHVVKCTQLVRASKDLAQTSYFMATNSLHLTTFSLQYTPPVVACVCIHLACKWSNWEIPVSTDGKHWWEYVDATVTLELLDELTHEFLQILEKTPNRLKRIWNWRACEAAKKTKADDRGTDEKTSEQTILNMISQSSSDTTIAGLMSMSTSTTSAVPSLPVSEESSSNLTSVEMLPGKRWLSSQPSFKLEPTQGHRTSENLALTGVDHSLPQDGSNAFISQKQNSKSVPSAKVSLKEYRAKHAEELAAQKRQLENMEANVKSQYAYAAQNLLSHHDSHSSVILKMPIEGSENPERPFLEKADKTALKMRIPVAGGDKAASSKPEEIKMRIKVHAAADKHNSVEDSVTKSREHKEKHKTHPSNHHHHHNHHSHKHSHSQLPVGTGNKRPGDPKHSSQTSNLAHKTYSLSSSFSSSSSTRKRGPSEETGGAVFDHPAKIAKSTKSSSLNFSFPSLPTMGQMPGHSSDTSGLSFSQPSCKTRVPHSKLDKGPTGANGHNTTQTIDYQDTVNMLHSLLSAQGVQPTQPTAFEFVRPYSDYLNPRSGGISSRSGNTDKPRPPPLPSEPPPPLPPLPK
Sequence of CDK9/cyclin T1 (P50750 whole entry): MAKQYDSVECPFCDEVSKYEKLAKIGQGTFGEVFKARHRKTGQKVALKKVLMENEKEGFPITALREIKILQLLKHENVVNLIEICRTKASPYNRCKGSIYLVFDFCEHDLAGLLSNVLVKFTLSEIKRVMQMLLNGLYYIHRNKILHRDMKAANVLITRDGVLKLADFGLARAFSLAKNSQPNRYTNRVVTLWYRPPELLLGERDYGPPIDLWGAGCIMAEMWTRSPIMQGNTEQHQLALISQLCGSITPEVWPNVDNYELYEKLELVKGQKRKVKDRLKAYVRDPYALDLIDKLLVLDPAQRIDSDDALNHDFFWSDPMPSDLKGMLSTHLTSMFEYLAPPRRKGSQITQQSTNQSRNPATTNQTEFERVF

HCT-116 = experiment: Growth inhibition of human HCT-116 cells incubated for 48 hrs by CCK-8 assay; format: functional
HT-29 = experiment: Growth inhibition of human HT-29 cells incubated for 48 hrs by CCK-8 assay; format: functional
[2] = molecular target: Cyclin-dependent kinase 2/cyclin E1 (Homo sapiens) (UniProt P24864+P24941); experiment: Inhibition of CDK2/Cyclin E1 (unknown origin) at 100 nM; format: protein-complex assay
[3] = molecular target: CDK2/Cyclin A2 (Homo sapiens) (UniProt P24941+P20248); experiment: Inhibition of CDK2/Cyclin A2 (unknown origin) at 100 nM; format: protein-complex assay
[4] = Half life in human plasma measured upto 120 mins by LC-MS/MS analysis; format: ADME, cell-free
CYP2C9 = CYP2C9 (Homo sapiens, UniProt P11712); experiment: Inhibition of CYP2C9 in human liver microsomes using sulfaphenazole as […] at 10 uM preincubated for 10 mins followed by NADPH addition measured after 15 mins by LC-MS/MS analysis relative to control; format: ADME, Microsome; details: probe sulfaphenazole, time 25 min
[5] = Half life in human liver microsomes at 100 uM measured upto 60 mins in presence of NADPH by LC-MS/MS analysis; format: ADME, Microsome
[6] = molecular target: Cyclin-dependent kinase 8 (Homo sapiens, UniProt P49336); experiment: Inhibition of CDK8 (unknown origin)
Sequence of Cyclin-dependent kinase 8 (P49336 whole entry): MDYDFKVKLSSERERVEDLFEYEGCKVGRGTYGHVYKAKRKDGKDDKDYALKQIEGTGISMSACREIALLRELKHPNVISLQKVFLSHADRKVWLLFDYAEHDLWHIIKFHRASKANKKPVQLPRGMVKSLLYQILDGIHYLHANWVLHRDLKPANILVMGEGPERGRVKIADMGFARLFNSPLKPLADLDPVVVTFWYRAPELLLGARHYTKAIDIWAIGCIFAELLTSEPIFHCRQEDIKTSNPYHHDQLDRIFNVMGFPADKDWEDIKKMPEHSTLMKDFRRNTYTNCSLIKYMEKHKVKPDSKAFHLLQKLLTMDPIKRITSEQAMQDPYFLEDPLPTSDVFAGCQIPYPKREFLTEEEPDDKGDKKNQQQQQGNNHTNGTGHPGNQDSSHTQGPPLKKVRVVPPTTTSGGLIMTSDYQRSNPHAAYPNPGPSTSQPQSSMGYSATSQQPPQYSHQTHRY

[7] = molecular target: Cyclin-dependent kinase 6 (Homo sapiens, UniProt Q00534); experiment: Inhibition of CDK6 (unknown origin)
Sequence of Cyclin-dependent kinase 6 (Q00534 whole entry): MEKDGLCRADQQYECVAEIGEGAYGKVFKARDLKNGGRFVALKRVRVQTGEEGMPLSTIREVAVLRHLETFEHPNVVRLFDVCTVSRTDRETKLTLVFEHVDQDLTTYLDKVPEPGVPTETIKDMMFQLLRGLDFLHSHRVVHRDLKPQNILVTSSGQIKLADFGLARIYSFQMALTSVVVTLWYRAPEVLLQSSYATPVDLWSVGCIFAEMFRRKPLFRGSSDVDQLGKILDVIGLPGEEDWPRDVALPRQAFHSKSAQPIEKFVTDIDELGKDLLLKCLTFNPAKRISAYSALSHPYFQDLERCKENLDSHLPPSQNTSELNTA

[8] = molecular target: Cyclin-dependent kinase 5 (Homo sapiens, UniProt Q00535); experiment: Inhibition of CDK5 (unknown origin)
Sequence of Cyclin-dependent kinase 5 (Q00535 whole entry): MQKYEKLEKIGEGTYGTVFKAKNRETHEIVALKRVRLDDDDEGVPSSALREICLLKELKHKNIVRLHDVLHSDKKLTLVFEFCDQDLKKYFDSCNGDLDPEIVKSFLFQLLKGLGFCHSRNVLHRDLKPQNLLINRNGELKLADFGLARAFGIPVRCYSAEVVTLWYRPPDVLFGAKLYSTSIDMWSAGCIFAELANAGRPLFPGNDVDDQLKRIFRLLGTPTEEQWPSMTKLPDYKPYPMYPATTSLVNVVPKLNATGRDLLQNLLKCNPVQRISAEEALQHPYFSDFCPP

[9] = Intrinsic microsomal clearance in human liver microsomes at 100 uM measured upto 60 mins in presence of NADPH by LC-MS/MS analysis; format: ADME, Microsome; details: read-out: CLH
CYP2D6 = CYP2D6 (Homo sapiens, UniProt P10635); experiment: Inhibition of CYP2D6 in human liver microsomes using quinidine as […] at 10 uM preincubated for 10 mins followed by NADPH addition measured after 15 mins by LC-MS/MS analysis relative to control; format: ADME, Microsome; details: time 25 min
Sequence of CYP2D6 (P10635 whole entry): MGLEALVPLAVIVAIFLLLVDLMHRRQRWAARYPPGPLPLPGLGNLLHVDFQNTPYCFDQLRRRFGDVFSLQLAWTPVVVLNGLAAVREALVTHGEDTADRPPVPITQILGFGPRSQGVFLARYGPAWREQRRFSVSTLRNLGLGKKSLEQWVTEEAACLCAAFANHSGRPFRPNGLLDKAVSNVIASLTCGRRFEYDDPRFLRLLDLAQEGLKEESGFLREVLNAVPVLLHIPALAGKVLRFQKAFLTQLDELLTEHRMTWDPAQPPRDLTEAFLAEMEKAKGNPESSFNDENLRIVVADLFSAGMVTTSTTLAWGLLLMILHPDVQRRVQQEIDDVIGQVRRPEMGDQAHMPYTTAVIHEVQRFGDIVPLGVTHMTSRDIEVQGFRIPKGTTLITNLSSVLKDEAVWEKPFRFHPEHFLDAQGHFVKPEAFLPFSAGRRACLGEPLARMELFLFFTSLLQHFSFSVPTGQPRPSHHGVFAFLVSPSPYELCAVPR

CYP3A4 = CYP3A4 (Homo sapiens, UniProt P08684); experiment: Inhibition of CYP3A4 in human liver microsomes using ketoconazole as […] at 10 uM preincubated for 10 mins followed by NADPH addition measured after 15 mins by LC-MS/MS analysis relative to control; format: ADME, Microsome; details: probe ketoconazole, time 25 min
[10] = molecular target: Cyclin-dependent kinase 12 (Homo sapiens, UniProt Q9NYV4); experiment: Inhibition of CDK12 (unknown origin)
Sequence of Cyclin-dependent kinase 12 (Q9NYV4 whole entry): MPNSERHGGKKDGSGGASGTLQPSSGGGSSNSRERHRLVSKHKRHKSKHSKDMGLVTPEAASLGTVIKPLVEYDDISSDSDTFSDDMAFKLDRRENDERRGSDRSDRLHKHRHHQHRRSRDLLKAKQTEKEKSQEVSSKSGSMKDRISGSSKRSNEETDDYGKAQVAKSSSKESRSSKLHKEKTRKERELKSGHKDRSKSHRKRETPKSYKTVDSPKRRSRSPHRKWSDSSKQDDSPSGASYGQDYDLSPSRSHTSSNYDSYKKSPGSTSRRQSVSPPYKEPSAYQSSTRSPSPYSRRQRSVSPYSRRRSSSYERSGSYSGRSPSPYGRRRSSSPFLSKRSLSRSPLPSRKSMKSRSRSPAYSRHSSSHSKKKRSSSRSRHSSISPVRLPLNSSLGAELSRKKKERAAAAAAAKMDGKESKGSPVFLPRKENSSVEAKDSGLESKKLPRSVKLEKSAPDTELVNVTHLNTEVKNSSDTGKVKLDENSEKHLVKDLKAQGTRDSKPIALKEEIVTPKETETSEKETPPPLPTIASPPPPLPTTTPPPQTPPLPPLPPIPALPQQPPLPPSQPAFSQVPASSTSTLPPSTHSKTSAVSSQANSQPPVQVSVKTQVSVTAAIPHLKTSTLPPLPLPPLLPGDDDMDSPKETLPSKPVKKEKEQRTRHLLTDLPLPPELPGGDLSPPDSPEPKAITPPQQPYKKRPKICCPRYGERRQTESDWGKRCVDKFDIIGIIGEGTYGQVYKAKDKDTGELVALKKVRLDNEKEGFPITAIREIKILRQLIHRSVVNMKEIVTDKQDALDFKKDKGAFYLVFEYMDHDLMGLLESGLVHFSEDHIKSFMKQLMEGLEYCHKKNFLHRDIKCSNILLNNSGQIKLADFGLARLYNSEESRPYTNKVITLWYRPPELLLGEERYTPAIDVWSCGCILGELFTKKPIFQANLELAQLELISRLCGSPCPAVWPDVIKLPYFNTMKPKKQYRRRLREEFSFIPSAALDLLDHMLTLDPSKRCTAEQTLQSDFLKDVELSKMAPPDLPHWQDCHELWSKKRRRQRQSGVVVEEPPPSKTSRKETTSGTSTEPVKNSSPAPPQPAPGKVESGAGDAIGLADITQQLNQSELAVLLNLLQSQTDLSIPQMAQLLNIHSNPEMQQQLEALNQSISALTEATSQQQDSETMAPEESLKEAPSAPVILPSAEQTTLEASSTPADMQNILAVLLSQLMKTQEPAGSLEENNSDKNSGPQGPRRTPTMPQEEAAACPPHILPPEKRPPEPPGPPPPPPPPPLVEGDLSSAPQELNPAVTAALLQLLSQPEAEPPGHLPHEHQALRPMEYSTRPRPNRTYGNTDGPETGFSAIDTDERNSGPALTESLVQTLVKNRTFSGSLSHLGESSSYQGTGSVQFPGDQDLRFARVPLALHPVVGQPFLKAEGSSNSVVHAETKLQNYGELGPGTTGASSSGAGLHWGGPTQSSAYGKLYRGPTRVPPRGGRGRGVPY

CYP2C19 = CYP2C19 (Homo sapiens, UniProt P33261); experiment: Inhibition of CYP2C19 in human liver microsomes using benzylnirvanol as […] at 10 uM preincubated for 10 mins followed by NADPH addition measured after 15 mins by LC-MS/MS analysis relative to control; format: ADME, Microsome; details: probe benzylnirvanol, time 25 min
[11] = molecular target: Cyclin-dependent kinase 9 (Homo sapiens, UniProt P50750); experiment: Inhibition of CDK9 (unknown origin)
Sequence of Cyclin-dependent kinase 9 (P50750 whole entry): as the sequence (P50750 whole entry) above

[12] = molecular target: Cyclin-dependent kinase 2 (Homo sapiens, UniProt P24941); experiment: Inhibition of CDK2 (unknown origin)
[13] = molecular target: Cyclin-dependent kinase 1 (Homo sapiens, UniProt P06493); experiment: Inhibition of CDK1 (unknown origin)
Sequence of Cyclin-dependent kinase 1 (P06493 whole entry): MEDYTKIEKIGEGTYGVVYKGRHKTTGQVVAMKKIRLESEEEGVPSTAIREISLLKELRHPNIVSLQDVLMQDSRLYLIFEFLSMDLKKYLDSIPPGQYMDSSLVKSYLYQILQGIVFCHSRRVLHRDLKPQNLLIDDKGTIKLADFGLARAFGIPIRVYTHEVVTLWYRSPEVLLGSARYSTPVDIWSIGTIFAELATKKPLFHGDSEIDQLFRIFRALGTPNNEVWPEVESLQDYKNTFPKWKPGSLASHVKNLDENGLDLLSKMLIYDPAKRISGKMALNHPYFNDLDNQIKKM

CYP1A2 = molecular target: T1, CYP1A2 (Homo sapiens, UniProt P05177); experiment: Inhibition of CYP1A2 in human liver microsomes using alpha-naphthoflavone as […] at 10 uM preincubated for 10 mins followed by NADPH addition measured after 15 mins by LC-MS/MS analysis relative to control; format: ADME, Microsome; details: time 25 min
T1 sequence (P05177 whole entry): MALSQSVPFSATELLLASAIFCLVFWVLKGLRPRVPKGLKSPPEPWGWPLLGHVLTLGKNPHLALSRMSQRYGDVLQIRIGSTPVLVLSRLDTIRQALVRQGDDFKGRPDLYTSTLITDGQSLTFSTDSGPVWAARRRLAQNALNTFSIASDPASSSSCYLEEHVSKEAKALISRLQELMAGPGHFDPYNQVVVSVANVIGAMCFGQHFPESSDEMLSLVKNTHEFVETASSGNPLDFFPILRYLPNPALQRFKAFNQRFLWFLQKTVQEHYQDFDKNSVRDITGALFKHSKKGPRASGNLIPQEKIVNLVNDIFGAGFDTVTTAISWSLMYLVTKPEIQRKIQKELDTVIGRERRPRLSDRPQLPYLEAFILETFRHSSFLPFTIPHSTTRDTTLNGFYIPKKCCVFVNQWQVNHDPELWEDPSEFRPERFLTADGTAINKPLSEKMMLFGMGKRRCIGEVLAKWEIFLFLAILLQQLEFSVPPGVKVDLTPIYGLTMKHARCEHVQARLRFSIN

[14] = molecular target: Cyclin-dependent kinase 4 (Homo sapiens, UniProt P11802); experiment: Inhibition of CDK4 (unknown origin)
Sequence of Cyclin-dependent kinase 4 (P11802 whole entry): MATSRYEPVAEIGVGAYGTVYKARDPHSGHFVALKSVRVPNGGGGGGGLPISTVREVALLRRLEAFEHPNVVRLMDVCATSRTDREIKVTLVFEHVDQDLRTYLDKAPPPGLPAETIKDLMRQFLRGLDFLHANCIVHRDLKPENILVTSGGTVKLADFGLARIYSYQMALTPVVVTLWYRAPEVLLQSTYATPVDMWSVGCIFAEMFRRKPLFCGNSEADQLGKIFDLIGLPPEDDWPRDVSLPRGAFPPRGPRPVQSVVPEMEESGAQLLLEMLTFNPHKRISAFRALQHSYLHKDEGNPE

[15] = Intrinsic clearance in human liver microsomes at 100 uM measured upto 60 mins in presence of NADPH by LC-MS/MS analysis; format: ADME, Microsome; details: 1 h
[16] = Stability in human liver microsomes assessed as compound remaining at 100 uM measured upto 60 mins in presence of NADPH by LC-MS/MS analysis; format: ADME, Microsome; details: read-out: Stability
[17] = molecular target: Cyclin-dependent kinase 7 (Homo sapiens, UniProt P50613); experiment: Inhibition of CDK7 (unknown origin)
[18] = molecular target: CDK9/cyclin T1 (Homo sapiens) (UniProt O60563+P50750); experiment: Inhibition of CDK9/Cyclin T1 (unknown origin) using PDKtide substrate at 500 nM incubated for 60 mins by ADP-Glo kinase assay relative to control; format: protein-complex assay

Structure (SMILES): CC(C)(C)n1nnc2ccc(-c3ccnc(Nc4ccc(C(=O)N5CCOCC5)cn4)c3)cc21
inhibition [18]: 98.9% | IC50 (CDK9/cyclin T1): 9.73 nM

Structure (SMILES): COc1cc(C(=O)N2CCOCC2)ccc1Nc1cc(-c2ccc3nnn(C4CCCC4)c3c2)ccn1
inhibition [18]: 23.5%

Structure (SMILES): CC(C)n1nnc2ccc(-c3ccnc(Nc4ccc(C(=O)N5CCOCC5)cc4C(F)(F)F)c3)cc21
inhibition [18]: 11.4%

Structure (SMILES): O=C(c1ccc(Nc2cc(-c3ccc4nnn(C5CCCCC5)c4c3)ccn2)nc1)N1CCOCC1
inhibition [18]: 98% | IC50 (CDK9/cyclin T1): 13.2 nM

Structure (SMILES): O=C(c1ccc(Nc2cc(-c3ccc4nnn(C5CCCC5)c4c3)ccn2)c(F)c1)N1CCOCC1
inhibition [18]: 12.9%

Structure (SMILES): O=C(c1ccc(Nc2cc(-c3ccc4nnn(C5CCCCC5)c4c3)ccn2)cc1)N1CCOCC1
inhibition [18]: 76%

Structure (SMILES): O=C(c1ccc(Nc2cc(-c3ccc4nnn(C5CCCCC5)c4c3)ccn2)c(C(F)(F)F)c1)N1CCOCC1
inhibition [18]: 0.49%

Structure (SMILES): CC(C)(C)n1nnc2ccc(-c3ccnc(Nc4ccc(C(=O)N5CCOCC5)cc4C(F)(F)F)c3)cc21
inhibition [18]: 6.51%

Continued, values first:

inhibition [1]: Active | inhibition (Homo sapiens): Active | IC50 (CDK9/cyclin T1): 3.8 nM | GI50 (HCT-116): 60 nM | GI50 (HT-29): 50 nM | inhibition [2]: Active | inhibition [3]: Active
Structure (SMILES): CCN1CCN(C(=O)c2ccc(Nc3cc(-c4ccc5nnn(C(C)C)c5c4)ccn3)nc2)CC1

half-life [4]: > 289 min | inhibition at 0.25 h, 10 µM (CYP2C9): 29.6% | half-life at 100 µM [5]: 17.4 min | IC50 [6]: > 500 nM | IC50 [7]: 11.5 nM | IC50 [8]: > 500 nM | microsomal CLint at 100 µM [9]: 79.8 µL/min/mg | inhibition at 0.25 h, 10 µM (CYP2D6): 0% | inhibition at 0.25 h, 10 µM (CYP3A4): 0% | IC50 [10]: > 500 nM | inhibition at 0.25 h, 10 µM (CYP2C19): 56.1% | IC50 [11]: 1.3 nM | IC50 (CDK9/cyclin T1): 1.32 nM | IC50 [12]: 134 nM | IC50 [13]: 161 nM | GI50 (HCT-116): 80 nM | inhibition at 0.25 h, 10 µM (CYP1A2): 12.2% | IC50 [14]: 35.6 nM | GI50 (HT-29): 420 nM | CLH [15]: 71.8 µL/min/mg | remaining at 1 h, 100 µM [16]: 9% | IC50 [17]: > 500 nM
Structure (SMILES): CC(C)n1nnc2ccc(-c3ccnc(Nc4cc(C(=O)N5CCCC5)ccn4)c3)cc21

IC50 (CDK9/cyclin T1): 2.3 nM | GI50 (HCT-116): 90 nM | GI50 (HT-29): 300 nM
Structure (SMILES): CC(C)n1nnc2ccc(-c3ccnc(Nc4ccc(C(=O)N5CCNC(=O)C5)cn4)c3)cc21

IC50 (CDK9/cyclin T1): 6.62 nM | GI50 (HCT-116): 310 nM | GI50 (HT-29): 350 nM
Structure (SMILES): CC(C)n1nnc2ccc(-c3ccnc(Nc4ccc(C(=O)N5CCCC5)cn4)c3)cc21

IC50 (CDK9/cyclin T1): 4.08 nM | GI50 (HCT-116): 330 nM | GI50 (HT-29): 80 nM
Structure (SMILES): CC(C)N1CCN(C(=O)c2ccc(Nc3cc(-c4ccc5nnn(C(C)C)c5c4)ccn3)nc2)CC1

inhibition [18]: 101% | IC50 (CDK9/cyclin T1): 9.43 nM | GI50 (HCT-116): 350 nM | GI50 (HT-29): 220 nM
Structure (SMILES): CC(C)n1nnc2ccc(-c3ccnc(Nc4ccc(C(=O)N5CCOCC5)cn4)c3)cc21

IC50 (CDK9/cyclin T1): 3.05 nM | GI50 (HCT-116): 280 nM | GI50 (HT-29): > 2000 nM
Structure (SMILES): CC(C)n1nnc2ccc(-c3ccnc(Nc4ccc(C(=O)N5CCCN(C)CC5)cn4)c3)cc21

half-life [4]: > 289 min | inhibition at 0.25 h, 10 µM (CYP2C9): 56.3% | half-life at 100 µM [5]: 7.8 min | IC50 [6]: > 500 nM | IC50 [7]: 33.1 nM | IC50 [8]: > 500 nM | microsomal CLint at 100 µM [9]: 177 µL/min/mg | inhibition at 0.25 h, 10 µM (CYP2D6): 7.1% | inhibition at 0.25 h, 10 µM (CYP3A4): 15.7% | IC50 [10]: > 500 nM | inhibition at 0.25 h, 10 µM (CYP2C19): 48.3% | IC50 [11]: 3.3 nM | IC50 (CDK9/cyclin T1): 3.37 nM | IC50 [12]: 167 nM | IC50 [13]: 125 nM | GI50 (HCT-116): 40 nM | inhibition at 0.25 h, 10 µM (CYP1A2): 25.1% | IC50 [14]: > 500 nM | GI50 (HT-29): 410 nM | CLH [15]: 158.9 µL/min/mg | remaining at 1 h, 100 µM [16]: 0.5% | IC50 [17]: > 500 nM
Structure (SMILES): CC(C)N1CCN(C(=O)c2ccnc(Nc3cc(-c4ccc5nnn(C(C)C)c5c4)ccn3)c2)CC1
